# Results as given in paper PMC13401508 (Pharmacological research, 2026).
# Entries after “also recorded” stand apart in the source; their conditions may differ. Read-outs that look alike come from different tables or passages of the source.
# Key:
# PDGFRα = experiment: Western blot, PDGF-AA activated HS5 cells: PDGFRα; format: cell-based, human; conditions: PDGF-AA 10 ng/ML, 25 μM, 24 hrs
# PC3-ML-Luc cells = experiment: Combination and survival study, PC3-ML-Luc model; format: in vivo; conditions: PC3-ML-Luc in athymic nude mice, day 14, IVMT-Rx-4 30 mg/kg and/or Docetaxel 5 mg/kg 3X a week for two weeks
# Experimental: Both syngeneic (C57BL/6) and athymic nude mice were used for survival studies. Tumor cells (RM1-BM-Luc or PC3-ML-Luc) were injected intracardially in a cohort of 40 animals. […] In the combination groups, both regimens were administered 3X a week for two-weeks at the same dose as a single therapy. Animals were imaged periodically and maintained until euthanization was required.
# Fig. 5. […] A and B) RM1-BM-Luc (A) or PC3-ML-Luc (B) cells were implanted I.C. in C57BL/6 and athymic nude mice, respectively. […] BLI images were used to detect bone metastases (the percentage incidence of bone metastases in animals was calculated at a single time point, day 14). Values are presented at the bottom panel of the respective group (red, number of animals positive for metastasis and black, total number of experimental animals). C and D) Animals were kept until mandated euthanasia based on IACUC guidelines, considered as disease associated death. The Kaplan–Meier survival curves were generated using GraphPad in both models as described in (A) and (B), respectively. E and F) Log-rank test was performed and values between different experimental groups are presented.
# RM1-BM-Luc cells = experiment: Experimental bone metastasis, intracardiac RM1-BM-Luc; format: in vivo, C57BL/6 mice
# Experimental: For experimental bone metastasis experiments, 3 × 10^4 RM1-BM-Luc cells were injected by the intracardiac route to develop bone-metastases in 6- to 8-week-old male C57BL/6 mice as described previously. Incidence of metastasis was monitored using Bioluminescence imaging, as described previously.
# Fig. 4. […] RM1-BM-Luc cells were injected through the intracardiac (I.C.) route into C57BL/6 mice to establish experimental bone metastases. […] A) BLI imaging was performed on day 15 and the number of bone metastasis positive mice were graphically represented as metastatic events. B) Calculated ROI values are graphically represented (n = 6 ± SEM; * p < 0.05). C) Ex vivo BLI image of representative bones from both vehicle and IVMT-Rx-4 treated animals. D) Representative ex vivo images and (E) number of animals positive for metastases in the lungs, liver, brain and spleen for each experimental group ae presented.
# [1] = system: CYP1A2, 2A6, 2B6, 2C8, 2C9, 2C19, 2D6 (the other isoforms of the panel); experiment: Drug-substrate based CYP inhibition, other isoforms of the panel; format: in vitro ADME; conditions: human liver microsomes; isoforms of the panel not given; read-out: Drug-substrate based CYP Inhibition, others
# Experimental: (§1) IVMT-Rx-4 was incubated with selective probe substrates of each CYP isoform in the presence of human liver microsomes. The formation of metabolite was quantified using LC-MS/MS methods. The extent of inhibition was assessed by calculating the remaining enzyme activity and percent inhibition based on analyte-to-internal standard area ratios, using the following equations:
# (§2) Area Ratio = Peak AreaAnalyte / Peak AreaInternal Standard
# (§3) Remaining Activity (%) = Area Ratiotest compound / Area Ratiovehicle ×100
# (§4) Inhibition (%) = 100 ̶ Remaining Activity (%)
# [2] = system: CYP 1A2, 2A6, 2B6, 2C8, 2C9, 2C19, 2D6, 2E1, 3A4_M, 3A4_T (the others); experiment: as above; format: in vitro ADME; conditions: human liver microsomes; isoforms of the panel not given
# Experimental: as §1, §2, §3, §4
# CYP3A4 = molecular target: T1, CYP3A4 (Homo sapiens, UniProt P08684); experiment: Time dependent CYP inhibition (TDI); format: in vitro ADME; conditions: human liver microsomes, with or without NADPH
# T1 construct: in the presence of human liver microsomes; from tissue; host or cells: human liver microsomes
# Experimental: Then, the specific CYP3A4 substrate was added, and aliquots were collected at various time points. Samples were then diluted with ultra-pure water and analyzed by LC-MS/MS. Area ratio and remaining Activity (%) were calculated as above and IC50 values was calculated using Excel XLfit 5.3.1.3.
# [3] = Pharmacokinetic studies, single dose IV, PO, SC, IP; format: in vivo, CD1 mice
# Experimental: CD1 mice were randomly grouped to 4 groups (n=3 per group). […] Further, 20-µL blood samples were collected from a capillary in the retro-orbital plexus at pre-determined time intervals, placed into heparinized tubes, and immediately centrifuged (2500 × g, 15 min, 4 °C). The plasma was separated and kept frozen at −80 °C until analysis.
# Then the samples were vortexed for 30 s. After centrifugation at 4000 rpm for 15 min at 4 °C, the supernatant was diluted 3 times with water.5 µL of the diluted supernatant was injected into the Shimadzu LC/MS/MS system with a Phenomenex Kinetex C18 column (2.1 mm × 50 mm, 5 µm, 100 Å ). The samples were chromatographed using a gradient mobile phase consisting of 95% water (0.1% formic acid)– 95% acetonitrile (0.1% formic acid), delivered at a flow rate of 0.6 mL/min.
# [4] = Particle size distribution (PSD); format: physicochemical; conditions: wet method, water
# Experimental: About 15 mg of sample was pre-dispersed using 1 mL of water. After mixing completely, PSD was analyzed with the parameters in Table below.
# [5] = tumor-bearing animals, 30 mg/kg I.P., vs DMSO
# T1 sequence (P08684 whole entry): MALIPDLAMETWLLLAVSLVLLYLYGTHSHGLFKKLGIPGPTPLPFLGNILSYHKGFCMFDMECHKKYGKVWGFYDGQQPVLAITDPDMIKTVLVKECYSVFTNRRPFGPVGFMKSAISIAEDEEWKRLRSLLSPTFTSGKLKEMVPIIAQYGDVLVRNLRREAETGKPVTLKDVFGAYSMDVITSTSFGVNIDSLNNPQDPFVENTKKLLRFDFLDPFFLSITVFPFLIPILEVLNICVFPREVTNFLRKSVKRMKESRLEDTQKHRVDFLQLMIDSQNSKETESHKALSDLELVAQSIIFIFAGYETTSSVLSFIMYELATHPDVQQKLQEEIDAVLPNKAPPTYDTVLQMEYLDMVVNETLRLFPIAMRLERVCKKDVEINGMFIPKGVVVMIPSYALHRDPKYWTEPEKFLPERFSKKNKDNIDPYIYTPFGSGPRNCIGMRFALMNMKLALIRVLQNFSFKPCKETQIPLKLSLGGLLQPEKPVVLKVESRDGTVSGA
smiles,measurement,setting,value
Cc1cc(NC(=O)CCc2nnc(-c3ccccc3)o2)c(C)cc1N [IVMT-Rx-4],PDGFRα activation (phosphorylated PDGFRα),PDGFRα,downregulation of phosphorylated PDGFRα
same,"bone metastases, Incident/Total number tested",PC3-ML-Luc cells,1/8
same,animals with bone metastases,"RM1-BM-Luc cells; 30 mg/kg I.P. 3X a week for two weeks, fourteen days post-intracardiac injection, BLI",0 out of 6
same,Ex Vivo Imaging; Positive for tumor cells (n=6) Brain,"RM1-BM-Luc cells; 30 mg/kg I.P., 6 doses",0
same,Ex Vivo Imaging; Positive for tumor cells (n=6) Liver,"RM1-BM-Luc cells; 30 mg/kg I.P., 6 doses",2
same,Ex Vivo Imaging; Positive for tumor cells (n=6) Lungs,"RM1-BM-Luc cells; 30 mg/kg I.P., 6 doses",6
same,Ex Vivo Imaging; Positive for tumor cells (n=6) Spleen,"RM1-BM-Luc cells; 30 mg/kg I.P., 6 doses",0
same,"metastasis to the liver, brain and spleen, as well as to the bones","RM1-BM-Luc cells; 30 mg/kg I.P., ex-vivo imaging",partially prevented metastasis
same,CXCL5 in the serum of mice,RM1-BM-Luc cells; [5],reduced expression
same,PDGF-AA in the serum of mice,RM1-BM-Luc cells; [5],reduced expression
same,IC50,[1],> 10 µM
same,"Drug-substrate based CYP Inhibition, others",[2],no inhibitory effects
same,"Time-dependent inhibition (TDI), CYP3A4",CYP3A4,no time-dependent inhibition; also recorded: No TDI
same,Tmax,"[3]; CD1, mouse, plasma, 10 mg/kg, all non-intravenous routes",≤ 30 min
same,half-life,"[3]; CD1, mouse, plasma, ip, 10 mg/kg, IP 10 mg/kg, read-out: Plasma half-life (converted)",61.2 min
same,half-life,"[3]; CD1, mouse, plasma, iv, 3 mg/kg, IV 3 mg/kg, mean of 3 mice, read-out: T1/2 (plasma half-life) (converted)",27 min
same,half-life,"[3]; CD1, mouse, plasma, po, 10 mg/kg, PO 10 mg/kg, read-out: Plasma half-life (converted)",82.2 min
same,half-life,"[3]; CD1, mouse, plasma, sc, 10 mg/kg, SC 10 mg/kg, read-out: Plasma half-life (converted)",41.4 min
same,Maximum plasma concentration (Cmax),[3]; IP 10 mg/kg,1012 ng/mL
same,time to reach Cmax (Tmax),[3]; IP 10 mg/kg,15 min
same,time after which plasma levels became undetectable,[3]; IV 3 mg/kg,4 h
same,Maximum plasma concentration (Cmax),[3]; PO 10 mg/kg,2047 ng/mL
same,time to reach Cmax (Tmax),[3]; PO 10 mg/kg,15 min
same,time after which plasma levels became undetectable,"[3]; PO, SC and IP routes, 10 mg/kg",8 h
same,Maximum plasma concentration (Cmax),[3]; SC 10 mg/kg,1017 ng/mL
same,time to reach Cmax (Tmax),[3]; SC 10 mg/kg,30 min
same,"Dv [90], average value",[4],58.6 μm
